COc1ccc2[nH]cc(CCNC(C)=O)c2c1
solubility (mole fraction)
Conditions | 278.15 K | 283.15 K | 288.15 K | 293.15 K | 298.15 K | 303.15 K | 308.15 K | 313.15 K | 318.15 K | 323.15 K
in 2-ethoxyethanol | 0.0643 | 0.0729 | 0.0809 | 0.0919 | 0.103 | 0.113 | 0.126 | 0.138 | 0.152 | 0.168
in 2-methoxyethanol | 0.0729 | 0.0819 | 0.0921 | 0.103 | 0.115 | 0.129 | 0.142 | 0.159 | 0.173 | 0.191
in DMF | 0.177 | 0.191 | 0.205 | 0.221 | 0.235 | 0.251 | 0.267 | 0.285 | 0.302 | 0.321
